Reference: patent EP0804408B1, “NOVEL 4-SUBSTITUTED 2,6-DI-TERT-BUTYLPHENOL COMPOUNDS, PHARMACEUTICAL COMPOSITIONS CONTAINING SAME AND PREPARATION METHOD THEREFOR” (priority 1994, dated 1996)

Tested on: virus-stock de souche HSV1
Experiment: Virucidal properties on HSV1 stock virus (infectious titre after incubation at 37°C)
Assay type: cell-based
Protocol: On a apprécié les propriétés virucides du 3,5-di-t-butyl-4-hydroxybenzoate d'octaoxyéthylèneglycol de formule : [drawing 23] dénommé ci-après par commodité AVF1, sur un échantillon de "virus-stock" de souche HSV1. Le titre infectieux (TV) d'échantillons traités avec AVF1 a été comparé au titre infectieux (TV0) d'un échantillon témoin afin de calculer la valeur log (TV/TV0).
Le protocole a consisté à incuber à 37°C l'échantillon de virus HSV1 stock avec le composé AVF1, en faisant varier la concentration en AVF1 et le temps d'incubation. TV0 a été déterminé à partir d'une composition constituée de 0,5 ml de milieu de culture MEM et 0,5 ml de virus-stock et TV a été déterminée à partir d'une composition constituée de 0,5 ml de AVF1 à diverses concentrations dans ledit milieu MEM et de 0,5 ml de virus-stock. Les valeurs TV0 et TV obtenus sont des multiples de la DI50/ml.
• Concentrations en AVF1 : 0,03; 0,06; 0,12; 0,25; 0,5; 1,25; 2,5; 5 mg/ml. • Temps d'incubation : 60 et 120 minutes. • Résultats : • Titre du témoin-virus : […] DI50/ml. • AVF1 < 2,5 mg/ml : TV. • AVF1 ≥ 2,5 mg/ml : 0. • Conclusions : AVF1 est virucide en 60 minutes à la concentration 2,5 mg/ml.
• Concentrations en AVF1 : 1 et 5 mg/ml. • Temps d'incubation : 5, 15, 30, et 60 minutes. • Résultats : • Titre du témoin-virus : 2 x 10^6 DI50/ml • AVF1 = 5 mg/ml : virucide en 5 minutes, titre = 0. • AVF1 = 1 mg/ml : le titre est réduit de 1,5 log 10 en 60 minutes.

`CC(C)(C)c1cc(C(=O)OCCOCCOCCOCCOCCOCCOCCOCCO)cc(C(C)(C)C)c1O` [AVF1, 3,5-di-t-butyl-4-hydroxybenzoate d'octaoxyéthylèneglycol] was tested, and the “concentration virucide en 60 minutes” value (Essai 1, 60 minutes, 37°C) was 2,5 mg/ml, the “Titre infectieux (TV)” value (Essai 1, AVF1 ≥ 2,5 mg/ml, incubation 60 and 120 minutes, 37°C) was 0 DI50/ml and the réduction du titre (Essai 2, AVF1 = 1 mg/ml, 60 minutes) was 1,5 log 10. The titre (Essai 2, AVF1 = 5 mg/ml, virucidal in 5 minutes) was 0 DI50/ml.
